Test results from patent US4405743A, “Pyrazolylpyrimidine derivatives” (Hokko Chemical Industry Co., Ltd., priority 1981, dated 1983).
In brackets after ≈: the same amount, converted by molar mass. Where two headings read alike, the source gives them in different places.

Key:
[1] = Annual Report of the Takeda's Research Institute, Vol. 24, pages 250-258 (1965); cited from earlier work
Sphaerotheca friliginea = assay: Effect of controlling cucumber powdery mildew, Experimental Example 4; format: in vivo; conditions: sprayed liquid 200 ppm, 10 days after inoculation
Method: 10 ml of each of test liquids diluted to a predetermined concentration was sprayed over seedlings of a cucumber plant (variety: Sagami Hanpaku) grown up to the first leaf stage which has been soil cultured in an unglazed pot with a diameter of 9 cm in a green house. After allowing to stand overnight, the seedlings were sprayed for inoculation with a spore suspension of Sphaerotheca friliginea. Ten days after the inoculation, the rate of a lesion area (%) was checked and a control value was evaluated from the following equation. The degree of chemical injury against a cucumber plant was determined in the same manner as in Experimental Example.

Cochliobolus miyabeanus [2] = assay: Effect of controlling rice brown spot, Experimental Example 3; format: in vivo, Cochliobolus miyabeanus on rice plant (variety: Asahi); conditions: sprayed liquid 500 ppm, 5 days after inoculation
Pyricularia oryzae [3] = format: in vivo, Pyricularia oryzae on rice plant (variety: Asahi); conditions: rice blast, prevention; 200 ppm; 5 days after inoculation
rice plant [4] = conditions: blast curative test, 200 ppm
rice plant [5] = conditions: blast prevention test, 200 ppm
Cochliobolus miyabeanus [6] = assay: Antimicrobial activity (mycelium growth inhibition, PDA medium); format: cell-based; conditions: Bipolaris oryzae, read-out: ED50 value
Pyricularia oryzae [7] = assay: microbe, parasite or virus in culture; format: cell-based; conditions: read-out: ED50 value
Pyricularia oryzae [8] = format: in vivo, Pyricularia oryzae on rice plant (variety: Asahi); conditions: rice blast, curative treatment; sprayed liquid 200 ppm; 5 days after spraying
Alternaria padwikii = assay: Antimicrobial activity (mycelium growth inhibition, PDA medium); format: cell-based; conditions: 24° C., read-out: ED50 value
Method: (§1) Experimental Example 5 (Test for Antimicrobial Activity Against Various Plant Phathogenic Fungi)
(§2) 1 ml of an acetone solution of each of test compounds and 20 ml of the PDA medium (50° C.) to prepare media containing the chemical in different concentrations, followed by charging into a petri dish with a diameter of 9 cm where it was solidified flat. On the central portion of the chemical-containing medium was inoculated a fungus-containing medium a piece of ager black-containing mycelia which was obtained by punching by means of a cork borer the tip portion of mycelia of each test fungus which had been cultured in advance in the PDA medium, followed by cultivating at 24° C. Two to six days after the cultivation, the diameter of the mycelia was measured and mycelium growth inhibiting rate was calculated from a comparison with that of a non-treated plot. The mycelium growth inhibiting rate was plotted on a logarithmic probability paper to determine an ED50 value.

Penicillium digitatum = assay: as above; format: cell-based; conditions: 24° C., read-out: ED50 value
Method: as §1, §2

Botrytis cinerea = assay: as above; format: cell-based; conditions: 24° C., read-out: ED50 value
Method: as §1, §2

Sclerotinia fructigena = assay: as above; format: cell-based; conditions: 24° C., read-out: ED50 value
Method: as §1, §2

Mycosphaerella melonis = assay: as above; format: cell-based; conditions: 24° C., read-out: ED50 value
Method: as §1, §2

Glomerella cingulata = assay: as above; format: cell-based; conditions: Colletotrichum gloeosporioides, 24° C., read-out: ED50 value
Method: as §1, §2

[9] = system: Helminthosporium gramineum; assay: as above; format: cell-based; conditions: 24° C., read-out: ED50 value
Method: as §1, §2

Pellicularia sasakii = assay: as above; format: cell-based; conditions: 24° C., read-out: ED50 value
Method: as §1, §2

Endothia parasitica = assay: as above; format: cell-based; conditions: Cryphonectria parasitica, 24° C., read-out: ED50 value
Method: as §1, §2

Sclerotinia sclerotiorum = assay: as above; format: cell-based; conditions: 24° C., read-out: ED50 value
Method: as §1, §2

Fusarium nivale = assay: as above; format: cell-based; conditions: Microdochium nivale, 24° C., read-out: ED50 value
Method: as §1, §2

Phizoctonia solani = assay: as above; format: cell-based; conditions: 24° C., read-out: ED50 value
Method: as §1, §2

Curvularia sp. = assay: as above; format: cell-based; conditions: 24° C., read-out: ED50 value
Method: as §1, §2

Phoma lingam = assay: as above; format: cell-based; conditions: Plenodomus lingam, 24° C., read-out: ED50 value
Method: as §1, §2

Diaporthe citri = assay: as above; format: cell-based; conditions: 24° C., read-out: ED50 value
Method: as §1, §2

rice plant [10] = system: rice plant
rice blast = conditions: Annual Report of the Takeda's Research Institute, Vol. 24, pages 250-258 (1965); cited from earlier work

Cc1cc(SC#N)nc(-n2nc(C)cc2C)n1 [Comparative Chemical 3, 2-(3,5-dimethyl-1-pyrazolyl)-4-methyl-6-thiocyanopyrimidine]
chemical injury [1]: violent chemical injury

Cc1cc(C)n(-c2ncc(C)c(Sc3ccccc3)n2)n1 [Compound 35]
Control Value (Sphaerotheca friliginea): 100% | Control Value (Cochliobolus miyabeanus [2]): 92% | Control Value (Pyricularia oryzae [3]): 84% | Degree of chemical injury (rice plant [4]): 0 | Degree of chemical injury (rice plant [5]): 0 | IC50 (Cochliobolus miyabeanus [6]): 4.3 mg/L (≈ 14.5 µM) | IC50 (Pyricularia oryzae [7]): 0.2 mg/L (≈ 0.675 µM) | Control Value (Pyricularia oryzae [8]): 95% | IC50 (Alternaria padwikii): 1 mg/L (≈ 3.37 µM) | IC50 (Penicillium digitatum): 0.8 mg/L (≈ 2.7 µM) | IC50 (Botrytis cinerea): 9.6 mg/L (≈ 32.4 µM) | IC50 (Sclerotinia fructigena): 0.7 mg/L (≈ 2.36 µM) | IC50 (Mycosphaerella melonis): 2 mg/L (≈ 6.75 µM) | IC50 (Glomerella cingulata): 9.6 mg/L (≈ 32.4 µM) | IC50 [9]: 6.3 mg/L (≈ 21.3 µM) | IC50 (Pellicularia sasakii): 1.3 mg/L (≈ 4.39 µM) | IC50 (Endothia parasitica): 6.8 mg/L (≈ 22.9 µM) | IC50 (Sclerotinia sclerotiorum): 6.1 mg/L (≈ 20.6 µM) | IC50 (Fusarium nivale): 2.6 mg/L (≈ 8.77 µM) | IC50 (Phizoctonia solani): 2.8 mg/L (≈ 9.45 µM) | IC50 (Curvularia sp.): 1.8 mg/L (≈ 6.07 µM) | IC50 (Phoma lingam): 4.6 mg/L (≈ 15.5 µM) | IC50 (Diaporthe citri): 4.6 mg/L (≈ 15.5 µM) | Degree of chemical injury (cucumber plant; in vivo): 0 | Degree of chemical injury (rice plant [10]; in vivo): 0

Cc1cc(O)nc(-n2nc(C)cc2C)n1 [Comparative Chemical 1, 2-(3,5-dimethyl-1-pyrazolyl)-4-methyl-6-hydroxypyrimidine, reference compound]
Control Value (Sphaerotheca friliginea): 53.2% | Control Value (Cochliobolus miyabeanus [2]): 75% | activity of controlling rice blast (rice blast): show an activity of controlling rice blast | Control Value (Pyricularia oryzae [3]): 75% | Degree of chemical injury (rice plant [4]): 5 | Degree of chemical injury (rice plant [5]): 5 | chemical injury [1]: violent chemical injury | Control Value (Pyricularia oryzae [8]): 70% | Degree of chemical injury (cucumber plant; 200 ppm): 1 | Degree of chemical injury (rice plant [10]; 500 ppm): 5

Cc1cc(C)n(-c2nc(C)c(C)c(Oc3ccccc3)n2)n1 [Compound 38]
Control Value (Sphaerotheca friliginea): 100% | Control Value (Cochliobolus miyabeanus [2]): 87% | Control Value (Pyricularia oryzae [3]): 100% | Degree of chemical injury (rice plant [4]): 0 | Degree of chemical injury (rice plant [5]): 0 | IC50 (Cochliobolus miyabeanus [6]): 2.8 mg/L (≈ 9.51 µM) | IC50 (Pyricularia oryzae [7]): 0.04 mg/L (≈ 0.136 µM) | Control Value (Pyricularia oryzae [8]): 100% | IC50 (Alternaria padwikii): 1.7 mg/L (≈ 5.78 µM) | IC50 (Penicillium digitatum): 1.4 mg/L (≈ 4.76 µM) | IC50 (Botrytis cinerea): 8.8 mg/L (≈ 29.9 µM) | IC50 (Sclerotinia fructigena): 1.6 mg/L (≈ 5.44 µM) | IC50 (Mycosphaerella melonis): 4 mg/L (≈ 13.6 µM) | IC50 (Glomerella cingulata): 7.3 mg/L (≈ 24.8 µM) | IC50 [9]: 3.2 mg/L (≈ 10.9 µM) | IC50 (Pellicularia sasakii): 1.2 mg/L (≈ 4.08 µM) | IC50 (Endothia parasitica): 6.2 mg/L (≈ 21.1 µM) | IC50 (Sclerotinia sclerotiorum): 3.6 mg/L (≈ 12.2 µM) | IC50 (Fusarium nivale): 2.7 mg/L (≈ 9.17 µM) | IC50 (Phizoctonia solani): 2 mg/L (≈ 6.79 µM) | IC50 (Curvularia sp.): 1.5 mg/L (≈ 5.1 µM) | IC50 (Phoma lingam): 2.7 mg/L (≈ 9.17 µM) | IC50 (Diaporthe citri): 3.8 mg/L (≈ 12.9 µM) | Degree of chemical injury (cucumber plant; in vivo): 0 | Degree of chemical injury (rice plant [10]; in vivo): 0

CCCCc1c(C)nc(-n2nc(C)cc2C)nc1OCC [Compound 41]
Control Value (Sphaerotheca friliginea): 94% | Control Value (Cochliobolus miyabeanus [2]): 100% | Control Value (Pyricularia oryzae [3]): 100% | Degree of chemical injury (rice plant [4]): 0 | Degree of chemical injury (rice plant [5]): 0 | IC50 (Cochliobolus miyabeanus [6]): 1.4 mg/L (≈ 4.85 µM) | IC50 (Pyricularia oryzae [7]): 0.01 mg/L (≈ 0.0347 µM) | Control Value (Pyricularia oryzae [8]): 100% | IC50 (Alternaria padwikii): 0.7 mg/L (≈ 2.43 µM) | IC50 (Penicillium digitatum): 1.1 mg/L (≈ 3.81 µM) | IC50 (Botrytis cinerea): 4.5 mg/L (≈ 15.6 µM) | IC50 (Sclerotinia fructigena): 1.5 mg/L (≈ 5.2 µM) | IC50 (Mycosphaerella melonis): 0.7 mg/L (≈ 2.43 µM) | IC50 (Glomerella cingulata): 4.1 mg/L (≈ 14.2 µM) | IC50 [9]: 2.8 mg/L (≈ 9.71 µM) | IC50 (Pellicularia sasakii): 1.1 mg/L (≈ 3.81 µM) | IC50 (Endothia parasitica): 4.6 mg/L (≈ 16 µM) | IC50 (Sclerotinia sclerotiorum): 3.8 mg/L (≈ 13.2 µM) | IC50 (Fusarium nivale): 0.2 mg/L (≈ 0.693 µM) | IC50 (Phizoctonia solani): 1.4 mg/L (≈ 4.85 µM) | IC50 (Curvularia sp.): 1.6 mg/L (≈ 5.55 µM) | IC50 (Phoma lingam): 2.6 mg/L (≈ 9.02 µM) | IC50 (Diaporthe citri): 2 mg/L (≈ 6.93 µM) | Degree of chemical injury (cucumber plant; in vivo): 0 | Degree of chemical injury (rice plant [10]; in vivo): 0
